Test results as given in patent US20090105278A1, “Selective inhibitors of human corticosteroid syntheses” (Universitat Des Saarlandes, priority 2004, published 2009).
Where two headings read alike, the source gives them in different places.

Key:
human CYP17 = molecular target: T1, human CYP17 (Homo sapiens, UniProt P05093); experiment: Percent inhibition of CYP17 (membrane fraction of E. coli pJL17/OR); assay type: biochemical; conditions: read-out: % Inhibition human CYP17
T1 construct: made in house; host or cells: E. coli pJL17/OR (membrane fraction)
T1 sequence (P05093 1-508): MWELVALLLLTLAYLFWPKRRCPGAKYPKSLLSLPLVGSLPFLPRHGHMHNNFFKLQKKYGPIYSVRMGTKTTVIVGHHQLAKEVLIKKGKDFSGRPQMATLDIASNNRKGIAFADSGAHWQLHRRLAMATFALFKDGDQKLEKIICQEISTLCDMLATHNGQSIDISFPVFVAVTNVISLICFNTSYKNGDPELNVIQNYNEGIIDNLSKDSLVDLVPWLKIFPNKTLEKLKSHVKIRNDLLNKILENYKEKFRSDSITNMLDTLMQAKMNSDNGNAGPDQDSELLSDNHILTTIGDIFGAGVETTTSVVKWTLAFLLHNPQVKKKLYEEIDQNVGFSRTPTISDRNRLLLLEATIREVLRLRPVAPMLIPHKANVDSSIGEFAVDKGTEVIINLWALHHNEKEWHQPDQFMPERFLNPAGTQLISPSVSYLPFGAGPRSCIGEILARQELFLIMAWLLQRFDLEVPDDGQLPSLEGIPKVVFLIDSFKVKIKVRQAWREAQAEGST
Method: The recombinantly altered E. coli strain pJL17/OR, in which human CYP17 and rat NADPH-P450-reductase were coexpressed, was grown and stored according to the method of Ehmer et al. (Ehmer, P. B. et al., J. Steroid Biochem. Mol. Biol. 75: 57-63 (2000)). For isolating the membrane fraction, 5 ml of the bacterial cell suspension with an OD578 of 50 was washed with phosphate buffer (0.05 M; pH 7.4; 1 mM MgCl2; 0.1 mM EDTA and 0.1 mM DTT). The bacteria were removed by centrifugation and resuspended in 10 ml of ice cold TES buffer (0.1 M tris-acetate; pH 7.8; 0.5 mM EDTA; 0.5 M sucrose). Four milligrams of lysozyme in 10 ml of ice cold water was added to obtain a final concentration of 0.2 mg/ml. This was followed by incubation for 30 minutes under continued shaking on ice. The spheroblasts were obtained by a renewed centrifugation step at 12,000 g for 10 min and again resuspended in 3 ml of ice cold phosphate buffer (composition see above, additionally 0.5 mM PMSF).
After freezing and thawing, the cells were lysed on ice with an ultrasonic disintegrator. The whole cells and the cell debris were centrifuged off at 3000 g for 7 min. The supernatant was again centrifuged at 50,000 g for 20 min at 4° C. A membrane pellet sedimented and was resuspended in 2 ml of phosphate buffer (composition see above) with […] by means of an Ultra-Turrax mixer. […] Aliquots with an approximate protein concentration of 5 mg/ml were stored at −70° C. until use.
Control incubations were performed in parallel with 5 μl DMSO without urea. The reaction was started by adding 50 μl of a membrane suspension diluted 1 to 5 in phosphate buffer (0.8 to 1 mg of protein per ml). After thoroughly mixing the components, the mixture was incubated at 37° C. for 30 min.
The steroids were extracted with 1 ml of EtOAc. […] After the centrifugation, 800 μl of the organic phase was removed, placed into a new vessel and evaporated to dryness. The samples were dissolved in 50 μl of a water-methanol mixture (1:1) and analyzed by HPLC. The substrate conversion was calculated from the ratio of the areas of the product peaks (17α-hydroxyprogesterone and 16α-hydroxyprogesterone) to that of the substrate peak. The activity of the inhibitors was calculated from the reduced substrate conversion after the addition of inhibitors in accordance with the following formula: […]

human CYP11B2 = molecular target: T2, human CYP11B2 (Homo sapiens, UniProt P19099); experiment: Screening test in transgenic fission yeast (S. pombe PE1) expressing human CYP11B2; assay type: cell-based; design: expressed in transfected cells; conditions: S. pombe cells which express human CYP11B2; deoxycorticosterone substrate 100 nM; inhibitor 500 nM; read-out: % Inhibition human hCYP11B2
T2 sequence (P19099 25-503): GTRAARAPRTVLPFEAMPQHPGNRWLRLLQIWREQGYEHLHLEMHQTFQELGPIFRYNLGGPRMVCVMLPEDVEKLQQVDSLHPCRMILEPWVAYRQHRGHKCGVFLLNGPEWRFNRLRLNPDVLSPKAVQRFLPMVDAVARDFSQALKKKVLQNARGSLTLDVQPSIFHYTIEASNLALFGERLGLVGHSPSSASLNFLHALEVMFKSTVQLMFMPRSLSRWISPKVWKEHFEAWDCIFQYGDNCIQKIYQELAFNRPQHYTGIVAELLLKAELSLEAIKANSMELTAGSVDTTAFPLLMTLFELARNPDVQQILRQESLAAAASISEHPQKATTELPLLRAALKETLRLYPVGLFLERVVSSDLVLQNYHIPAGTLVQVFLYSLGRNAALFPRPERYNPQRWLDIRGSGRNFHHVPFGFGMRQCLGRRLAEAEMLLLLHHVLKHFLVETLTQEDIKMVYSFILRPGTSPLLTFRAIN
Method: 492.5 μl of this cell suspension was admixed with 5 μl of inhibitor solution (50 μM of the compound to be tested in ethanol or DMSO) and incubated at 32° C. for 15 min. Controls were admixed with 5 μl of ethanol. […] The test was quenched by extracting the sample with 500 μl of EtOAc. After centrifugation (10,000 g, 2 min), the EtOAc phase was removed and evaporated to dryness. […] The reaction of the substrate to form corticosterone was analyzed by HPTLC (see below).
The quantification of the spots for the substrate deoxycorticosterone and the products corticosterone (and, if detectable, 18-hydroxycorticosterone and aldosterone) was effected with the related evaluation program AIDA. […] The calculation of the conversion rate was effected according to equation 1.
The plate was developed twice with the mobile solvent chloroform:methanol:water (300:20:1). Unlabeled 11-deoxycorticosterone and corticosterone were applied as a reference for the CYP11B1 reaction. For the CYP11B2 reaction, 11-deoxycorticosterone, corticosterone, 18-hydroxycorticosterone and aldosterone were used as references. The detection of the unlabeled references was effected at 260 nm. Subsequently, imaging plates (BAS MS2340, for ^14C samples, Raytest, Straubenhardt, Germany) were exposed to the HPTLC plates for 48 h. The imaging plates were scanned with the phosphoimager system Fuji FLA 3000 (Raytest, Straubenhardt, Germany), and the steroids were quantified.

bovine adrenal CYP11B = molecular target: T3, bovine adrenal CYP11B (Bos taurus, UniProt P15150); experiment: Percent inhibition of bovine CYP11B (adrenal mitochondria); conditions: corticosterone substrate 200 μM, inhibitor 1 μM; for % Inhibition bovine bCYP11B: bovine adrenal mitochondria, 1 mg/ml protein, oxalate; for inhibition at 1 µM: read-out: % Inhibition bovine bCYP11B, bovine adrenal mitochondria, 1 mg/ml protein
T3 sequence (P15150 25-503): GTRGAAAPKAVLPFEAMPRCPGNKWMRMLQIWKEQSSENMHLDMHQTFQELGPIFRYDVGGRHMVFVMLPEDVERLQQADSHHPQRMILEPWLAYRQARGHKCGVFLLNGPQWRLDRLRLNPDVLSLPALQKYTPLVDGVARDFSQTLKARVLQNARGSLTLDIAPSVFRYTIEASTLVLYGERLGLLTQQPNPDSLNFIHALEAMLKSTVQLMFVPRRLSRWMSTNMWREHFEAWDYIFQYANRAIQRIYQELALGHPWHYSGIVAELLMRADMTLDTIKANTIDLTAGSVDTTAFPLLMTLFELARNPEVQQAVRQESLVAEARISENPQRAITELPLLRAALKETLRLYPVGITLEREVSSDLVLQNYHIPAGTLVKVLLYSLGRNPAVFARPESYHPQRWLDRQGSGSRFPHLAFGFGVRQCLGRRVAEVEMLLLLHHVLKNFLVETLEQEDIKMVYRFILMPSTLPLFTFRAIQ
Method: Bovine adrenal glands obtained freshly after slaughtering were stored in ice cold Tris-sucrose buffer (0.25 M sucrose, 0.05 M Tris; pH 7.4) until processed. After removing the appending adipose tissue, the adrenal medulla was carefully separated from the adrenal cortex using scissors. The pieces of adrenal cortex were coarsely comminuted with scissors, washed with Tris-sucrose buffer, weighed and finely comminuted in the above buffer (2 ml per g of tissue) with a hand mixer. Thereafter, the tissue was homogenized with an Ultra-Turrax mixer. For separating coarse cell debris and the nuclei, the homogenizate was centrifuged twice for 15 min at 900 g and 4° C. The supernatant was subsequently centrifuged for 35 min at 11,000 g for recovering the mitochondrial fraction. For purifying the mitochondrial fraction, the precipitate was resuspended in Tri-sucrose buffer and again centrifuged at 11,000 g for 35 min. This washing step was performed two times in total. After the last centrifugation, the pellet was resuspended in Tris-sucrose buffer containing 0.001 M EDTA and frozen at −70° C.
The substrate corticosterone was dissolved in methanol and diluted with Tris buffer to a final concentration of 200 μM. The inhibitors were also dissolved in methanol and diluted with buffer to a final concentration of 1 μM. […] Corticosterone (200 μM) was incubated with inhibitor (1 μM) and mitochondrial enzyme (0.5 mg/0.5 ml) with the addition of a regenerating system consisting of NADP^+ (1 mM), glucose-6-phosphate (7 mM) and glucose-6-Phosphate dehydrogenase (1 IU/0.5 ml). Up to 5 inhibitors per test could be incubated in duplicate. […] After preincubation for 5 minutes (30° C.; water bath), the reaction was started by adding mitochondrial suspension. […] The blind values were admixed with 250 μl of HCl before the enzyme was pipetted in. The steroids were separated off by shaking with 1 ml of ethyl acetate (10 min). After centrifugation (15,000 g, 10 min), 900 μl of the organic phase was shaken with 250 μl 1 N NaOH (10 min), and 800 μl of supernatant was again washed with 250 μl of buffer. […] 18-OH-corticosterone (retention time: 10 min) and corticosterone (retention time: 21 min) were separated. The height of the 18-OH-corticosterone peak was used for evaluation. The percent inhibition of the 18-hydroxylation of corticosterone by the inhibitors was based on the mediums of the control incubation, taking the blind values into account.

CYP11B1 in NCI-H295R = molecular target: T4, CYP11B1 in NCI-H295R (Homo sapiens, UniProt P15538); experiment: cell-based; conditions: read-out: NCI-H295R CYP11B1 RSS % inhibition
T4 sequence (P15538 25-503): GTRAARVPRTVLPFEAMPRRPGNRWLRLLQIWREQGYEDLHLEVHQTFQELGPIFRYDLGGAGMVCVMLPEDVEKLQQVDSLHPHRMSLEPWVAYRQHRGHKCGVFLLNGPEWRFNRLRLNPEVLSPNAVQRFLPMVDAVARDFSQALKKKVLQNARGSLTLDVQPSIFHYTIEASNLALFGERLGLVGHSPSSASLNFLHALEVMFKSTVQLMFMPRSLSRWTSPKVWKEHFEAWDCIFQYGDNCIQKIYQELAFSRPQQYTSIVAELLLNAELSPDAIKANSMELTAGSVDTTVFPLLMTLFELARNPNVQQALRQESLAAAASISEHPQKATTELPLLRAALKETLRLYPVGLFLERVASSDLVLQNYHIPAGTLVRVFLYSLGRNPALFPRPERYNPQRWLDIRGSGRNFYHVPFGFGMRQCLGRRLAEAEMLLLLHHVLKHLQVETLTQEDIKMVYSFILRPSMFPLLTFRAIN
Method: For testing inhibitors, a preincubation for one hour was performed first, followed by starting the enzyme reactions by adding substrate (500 nM).
A) Seeding: The cell lines were grown and passaged until a confluent cell lawn had formed. By tryptic treatment, the cell material of at least two culture dishes was obtained, and the number of cells determined by means of a CASY TT cell counter (150 μl capillary). […] With the cell material of two confluently grown culture dishes, two 24-well plates could be coated. After 24 hours, the cells had grown on, and after another 24 hours' stimulation phase with a solution containing potassium ions (final concentration: 20 mM KCl), could be employed for the test.
Of this solution, 5 μl each was added to the samples.
Then, the 24-well plate was stored in a CO2 incubator at 37° C. and […]. The incubation time was 3 hours when deoxycorticosterone was used as the substrate, 24 Hours for corticosterone, and 48 hours for deoxycortisol.
Test stop: After elapse of the incubation times, the plates were briefly swung, and then the content of the wells was removed quantitatively if possible and inactivated by mixing with 1000 μl of dichloromethane in a 2 ml Eppendorf vessel. After 10 minutes of shaking, it was centrifuged for phase separation, and the […], organic phase was transferred into a 1.5 ml Eppendorf vessel. […]

ACTH-stimulated rats = conditions: Hausler et al. 1989; cited from earlier work
[1] = E. coli which expresses human CYP17, 5 mg/ml protein, progesterone substrate 2.5 μM, inhibitor 2.5 μM

Row | SMILES | inhibition at 2.5 µM (human CYP17; [1]) | melting point | inhibition at 0.5 µM (human CYP11B2) | % Inhibition bovine bCYP11B (bovine adrenal CYP11B) | inhibition at 1 µM (bovine adrenal CYP11B) | inhibition at 2.5 µM (human CYP17) | inhibition at 2.5 µM (CYP11B1 in NCI-H295R) | Aldosterone and corticosterone levels (ACTH-stimulated rats)
1 | N#Cc1ccc2c(c1)CCC/C2=C/c1cnc[nH]1.O=C(O)C(=O)O [Compound 44b, (5Z)-5-(1H-Imidazole-5-ylmethylene)-5,6,7,8-tetrahydronaphthalene-2-carbonitrile oxalate] | 4% | 206 °C | 54% | 97% | ~90% | – | – | –
2 | N#Cc1ccc2c(c1)CC/C2=C\c1cnc[nH]1.O=C(O)C(=O)O [Compound 45a, (1E)-1-(1H-Imidazole-5-ylmethylene)indane-5-carbonitrile oxalate] | 21% | 217 °C | 49% | 81% | ~90% | – | – | –
3 | N#Cc1ccc2c(c1)CC/C2=C/c1cnc[nH]1.O=C(O)C(=O)O [Compound 45b, (1Z)-1-(1H-Imidazole-5-ylmethylene)indane-5-carbonitrile oxalate] | 4% | 207 °C | 65% | 100% | ~90% | – | – | –
4 | Fc1ccc2c(c1)CC/C2=C\c1cnc[nH]1 [Compound 47a, 5-[(E)-(5-Fluoro-2,3-dihydro-1H-indene-1-ylidenemethyl]-1H-imidazolium chloride] | 16% | – | 59% | – | 67% | – | – | –
5 | N#Cc1ccc(C2CCCc3cncn32)cc1 (stereo not drawn) [Fadrozole, 4-(5,6,7,8-tetrahydroimidazo[1,5-a]pyridine-5-yl)benzonitrile, reference compound] | – | – | – | – | – | 7% | 92% | lowers the aldosterone and corticosterone levels
